Measured values: patent EP4755888A1 (ILAb Co., Ltd., priority 2023, dated 2025)

Biological target: PD-1/PD-L1 (Homo sapiens, UniProt Q9NZQ7)
Assay: TR-FRET PD-1/PD-L1 binding inhibition at the molecular level (free proteins)
Settings: Tag1-PD-L1 and Tag2-PD-1 proteins, twelve concentrations from 200 nM, 2 hours at room temperature, read-out: FRET assay (IC50)
Experimental: In order to evaluate the inhibitory activity of the compounds synthesized according to the above Preparation Examples against PD-1/PD-L1 molecules in a free protein state,a TR-FRET (Time-Resolved Fluorescence Energy Transfer) experimetn was performed as described below.
Specifically, the compounds were prepared in a 96-well plate by serial dilution starting from 200 nM with 1/2 dilutions to obtain a total of twelve concentrations, and 2 µL of each compound solution was added to a 384-well plate. Thereafter, Tag1-PD-L1 protein and Tag2-PD-1 protein were each prepared at a 1x concentration, mixed at a ratio of 1:1, and 8 µL of the mixed solution was added to each well of the 384-well plate containing the compounds. Anti-Tag1 Eu Cryptate reagent and Anti-Tag2 XL665 antibody were each prepared at a 1* concentration, mixed at a ratio of 1:1, and 10 µL of the mixed solution was added to each well of the 384-well plate containing the compounds and proteins, followed by incubation at room temperature for 2 hours. Upon completion of the reaction, fluorescence signals at wavelengths of 620 nm and 665 nm were measured using a microplate reader.

Sequence of PD-1/PD-L1 (Q9NZQ7 19-238 limits assumed): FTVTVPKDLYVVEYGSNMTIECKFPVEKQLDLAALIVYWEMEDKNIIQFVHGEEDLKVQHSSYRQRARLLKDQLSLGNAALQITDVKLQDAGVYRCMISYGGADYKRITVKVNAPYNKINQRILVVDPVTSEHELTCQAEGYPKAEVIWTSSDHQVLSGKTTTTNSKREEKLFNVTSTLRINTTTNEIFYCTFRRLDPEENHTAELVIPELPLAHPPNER

IC50	Compound
10 to 100 nM	CC(C)(N[C@H]1CCCn2nc(C(=O)Nc3cccc(-c4cccc(Nc5nc(C(F)(F)F)nc6cc(CN7CC[C@@H](O)C7)cnc56)c4Cl)c3Cl)cc21)C(=O)O [Compound 340, 2-(((S)-2-((2,2'-dichloro-3'-((7-(((R)-3-hydroxypyrrolidin-1-yl)methyl)-2-(trifluoromethyl)pyrido[3,2-d]pyrimidin-4-yl)amino)-[1,1'-biphenyl]-3-yl)carbamoyl)-4,5,6,7-tetrahydropyrazolo[1,5-a]pyridin-4-yl)amino)-2-methylpropanoic acid]
< 10 nM	Cc1c(NC(=O)c2cc3n(n2)CCCC3NCCO)cccc1-c1cccc(NC(=O)c2nc3c(n2C)CCN(CCC24CCC(C(=O)O)(CC2)C4)C3)c1C (stereo not shown) [Compound 48, 4-(2-(2-((3'-(4-((2-hydroxyethyl)amino)-4,5,6,7-tetrahydropyrazolo[1,5-a]pyridine-2-carboxamido)-2,2'-dimethyl-[1,1'-biphenyl]-3-yl)carbamoyl)-1-methyl-6,7-dihydro-1H-imidazo[4,5-c]pyridin-5(4H)-yl)ethyl)bicyclo[2.2.1]heptane-1-carboxylic acid]
< 10 nM	Cc1c(Nc2nccc3cc(CN4CC[C@@H](O)C4)cnc23)cccc1-c1cccc(-c2cc3n(n2)CCCC3N2CC[C@@H](C(=O)O)C2)c1C (stereo partly drawn) [Compound 178, (3R)-1-(2-(3'-((3-(((R)-3-hydroxypyrrolidin-1-yl)methyl)-1,7-naphthyridin-8-yl)amino)-2,2'-dimethyl-[1,1'-biphenyl]-3-yl)-4,5,6,7-tetrahydropyrazolo[1,5-a]pyridin-4-yl)pyrrolidine-3-carboxylic acid]
< 10 nM	COc1cc(-c2cccc(-c3cccc(NC(=O)c4cc5n(n4)CCCC5NCC(=O)O)c3Cl)c2Cl)cc(F)c1CNCCO (stereo not shown) [Compound 186, 2-((2-((2,2'-dichloro-3"-fluoro-4"-(((2-hydroxyethyl)amino)methyl)-5"-methoxy-[1,1':3',1"-terphenyl]-3-yl)carbamoyl)-4,5,6,7-tetrahydropyrazolo[1,5-a]pyridin-4-yl)amino)acetic acid]
10 to 100 nM	Cc1c(NC(=O)c2cc3n(n2)CCC[C@@H]3N2CCC(O)CC2)cccc1-c1cccc(Nc2nc(C(F)(F)F)nc3cccnc23)c1C [Compound 285, (S)-N-(2,2'-dimethyl-3'-((2-(trifluoromethyl)pyrido[3,2-d]pyrimidin-4-yl)amino)-[1,1'-biphenyl]-3-yl)-4-(4-hydroxypiperidin-1-yl)-4,5,6,7-tetrahydropyrazolo[1,5-a]pyridine-2-carboxamide]
10 to 100 nM	O=C(O)CCCNC1CCCn2nc(C(=O)Nc3cccc(-c4cccc(Nc5nccc6cc(CN7CC[C@@H](O)C7)cnc56)c4Cl)c3Cl)cc21 (stereo partly drawn) [Compound 239, 4-((2-((2,2'-dichloro-3'-((3-(((R)-3-hydroxypyrrolidin-1-yl)methyl)-1,7-naphthyridin-8-yl)amino)-[1,1'-biphenyl]-3-yl)carbamoyl)-4,5,6,7-tetrahydropyrazolo[1,5-a]pyridin-4-yl)amino)butanoic acid]
10 to 100 nM	O=C(Nc1cccc(-c2cccc(Nc3nc(C(F)(F)F)nc4cccnc34)c2Cl)c1Cl)c1cc2n(n1)CCC[C@H]2N1CCC(O)CC1 [Compound 304, (R)-N-(2,2'-dichloro-3'-((2-(trifluoromethyl)pyrido[3,2-d]pyrimidin-4-yl)amino)-[1,1'-biphenyl]-3-yl)-4-(4-hydroxypiperidin-1-yl)-4,5,6,7-tetrahydropyrazolo[1,5-a]pyridine-2-carboxamide]
< 10 nM	O=C(O)[C@@H]1CCN(C2CCCn3nc(-c4cccc(-c5cccc(Nc6nccc7cc(CN8CC[C@@H](O)C8)cnc67)c5Cl)c4Cl)cc32)C1 (stereo partly drawn) [Compound 184, (3R)-1-(2-(2,2'-dichloro-3'-((3-(((R)-3-hydroxypyrrolidin-1-yl)methyl)-1,7-naphthyridin-8-yl)amino)-[1,1'-biphenyl]-3-yl)-4,5,6,7-tetrahydropyrazolo[1,5-a]pyridin-4-yl)pyrrolidine-3-carboxylic acid]
< 10 nM	CN[C@H]1CCCn2nc(C(=O)Nc3cccc(-c4cccc(Nc5nccc6cc(CN7CC[C@@H](O)C7)cnc56)c4C)c3C)cc21 [Compound 346, (S)-N-(3'-((3-(((R)-3-hydroxypyrrolidin-1-yl)methyl)-1,7-naphthyridin-8-yl)amino)-2,2'-dimethyl-[1,1'-biphenyl]-3-yl)-4-(methylamino)-4,5,6,7-tetrahydropyrazolo[1,5-a]pyridine-2-carboxamide]
< 10 nM	Cc1c(NC(=O)c2cc3n(n2)CCCC3O)cccc1-c1cccc(NC(=O)c2cc3n(n2)CCCC3O)c1C (stereo not shown) [Compound 2-1, N,N'-(2,2'-dimethyl-[1,1'-biphenyl]-3,3'-diyl)bis(4-hydroxy-4,5,6,7-tetrahydropyrazolo[1,5-a]pyridine-2-carboxamide)]
< 10 nM	Cc1c(NC(=O)c2cc3n(n2)CCCC3NCCO)cccc1-c1cccc(-c2nc3cc(CN4CC[C@@H](C(=O)O)C4)cc(C#N)c3o2)c1C (stereo partly drawn) [Compound 64, (3R)-1-((7-cyano-2-(3'-(4-((2-hydroxyethyl)amino)-4,5,6,7-tetrahydropyrazolo[1,5-a]pyridine-2-carboxamido)-2,2'-dimethyl-[1,1'-biphenyl]-3-yl)benzo[d]oxazol-5-yl)methyl)pyrrolidine-3-carboxylic acid]
< 10 nM	Cc1c(NC(=O)c2cc3n(n2)CCCC3=O)cccc1-c1cccc(NC(=O)c2cc3n(n2)CCCC3=O)c1C [Compound 1, N,N'-(2,2'-dimethyl-[1,1'-biphenyl]-3,3'-diyl)bis(4-oxo-4,5,6,7-tetrahydropyrazolo[1,5-a]pyridine-2-carboxamide)]
< 10 nM	CC(=O)NCCNC1CCCn2nc(C(=O)Nc3cccc(-c4cccc(-c5nc6cc(CN7CC[C@@H](C(=O)O)C7)cc(C#N)c6o5)c4Cl)c3Cl)cc21 (stereo partly drawn) [Compound 69, (3R)-1-((2-(3'-(4-((2-acetamidoethyl)amino)-4,5,6,7-tetrahydropyrazolo[1,5-a]pyridine-2-carboxamido)-2,2'-dichloro-[1,1'-biphenyl]-3-yl)-7-cyanobenzo[d]oxazol-5-yl)methyl)pyrrolidine-3-carboxylic acid]
< 10 nM	Cc1c(NC(=O)c2ccc(CNCCO)cn2)cccc1-c1cccc(NC(=O)c2cc3n(n2)CCCC3N2CC[C@@H](O)C2)c1C (stereo partly drawn) [Compound 73, N-(3'-(5-(((2-hydroxyethyl)amino)methyl)picolinamido)-2,2'-dimethyl-[1,1'-biphenyl]-3-yl)-4-((R)-3-hydroxypyrrolidin-1-yl)-4,5,6,7-tetrahydropyrazolo[1,5-a]pyridine-2-carboxamide]

Compound	IC50
Cc1c(NC(=O)c2ccc(CNCCO)cn2)cccc1-c1cccc(NC(=O)c2cc3n(n2)CCCC3NCCO)c1C (stereo not shown) [Compound 74]	< 10 nM
Cc1c(NC(=O)c2ccc(CN3CC[C@@H](O)C3)cn2)cccc1-c1cccc(NC(=O)c2cc3n(n2)CCCC3NC[C@@H]2CCC(=O)N2)c1C (stereo partly drawn) [Compound 93, N-(3'-(5-(((R)-3-hydroxypyrrolidin-1-yl)methyl)picolinamido)-2,2'-dimethyl-[1,1'-biphenyl]-3-yl)-4-((((S)-5-oxopyrrolidin-2-yl)methyl)amino)-4,5,6,7-tetrahydropyrazolo[1,5-a]pyridine-2-carboxamide]	< 10 nM
